The source of these data is patent US20080207622A1, “SOLUBLE EPOXIDE HYDROLASE INHIBITORS” (Arete Therapeutics, Inc., priority 2006, published 2008).

For data set [1], the system named is soluble epoxide hydrolase (sEH). The experiment in a line: Fluorescent assay for mouse and human soluble epoxide hydrolase (CMNPC substrate). The class given is biochemical. The text has this:
Fluorescent Assay for Mouse and Human Soluble Epoxide Hydrolase
Recombinant mouse sEH (MsEH) and human sEH (HsEH) were produced in a baculovirus expression system as previously reported. Grant et al., J. Biol. Chem., 268:17628-17633 (1993); Beetham et al., Arch. Biochem. Biophys., 305:197-201 (1993). The expressed proteins were purified from cell lysate by affinity chromatography. Wixtrom et al., Anal. Biochem., 169:71-80 (1988). Protein concentration was quantified using the Pierce BCA assay using bovine serum albumin as the calibrating standard. The preparations were at least 97% pure as judged by SDS-PAGE and scanning densitometry. They contained no detectable esterase or glutathione transferase activity which can interfere with the assay. The assay was also evaluated with similar results in crude cell lysates or homogenate of tissues.
The IC50s for each inhibitor were determined according to the following procedure:
Cyano(2-methoxynaphthalen-6-yl)methyl (3-phenyloxiran-2-yl)methyl carbonate (CMNPC; Jones P. D. et. al.; Analytical Biochemistry 2005; 343: pp. 66-75)
Bis/Tris HCl 25 mM pH 7.0 containing 0.1 mg/mL of BSA (buffer A) CMNPC at 0.25 mM in DMSO.
Mother solution of enzyme in buffer A (Mouse sEH at 6 μg/mL and Human sEH at 5 μg/mL).
Inhibitor dissolved in DMSO at the appropriate concentration.
In a black 96 well plate, fill all the wells with 150 μL of buffer A.
Add 2 μL of DMSO in well A2 and A3, and then add 2 μL of inhibitor solution in A1 and A4 through A12.
Add 150 μL of buffer A in row A, then mix several time and transfer 150 μL to row B. Repeat this operation up to row H. The 150 μL removed from row H is discarded.
Add 20 μL of buffer A in column 1 and 2, then add 20 μL of enzyme solution to column 3 to 12.
Incubate the plate for 5 minutes in the plate reader at 30° C.
During incubation prepare the working solution of substrate by mixing 3.68 mL of buffer A (4×0.920 mL) with 266 μL (2×133 μL) of substrate solution).
At t=0, add 30 μL of working substrate solution with multi-channel pipette labeled “Briggs 303” and start the reading ([S]final: 5 μM).
Read with ex: 330 nm (20 nm) and em: 465 nm (20 nm) every 30 second for 10 minutes. The velocities are used to analyze and calculate the IC50s.

As to `O=C(Nc1ccc(C(F)(F)F)cc1)Nc1ccc(S(=O)(=O)c2ccccc2)cc1` [Compound 1, 1-(4-Benzenesulfonyl-phenyl)-3-(4-trifluoromethyl-phenyl)-urea], in data set [1] (Conc. 50 nM), the “% Inhibition” value is 92%.

On to `CS(=O)(=O)c1ccc(NC(=O)Nc2ccc(C(F)(F)F)cc2)cc1` [Compound 2, 1-(4-Methanesulfonyl-phenyl)-3-(4-trifluoromethyl-phenyl)-urea], for which the “% Inhibition” value in data set [1] (Conc. 50 nM) amounted to 79%.

In the case of `CS(=O)(=O)c1cccc(NC(=O)Nc2ccc(C(F)(F)F)cc2)c1` [Compound 3, 1-(3-Methanesulfonyl-phenyl)-3-(4-trifluoromethyl-phenyl)-urea], the “% Inhibition” value in data set [1] (Conc. 50 nM) is reported as 88%.

With `O=C(Nc1ccccc1)Nc1cccc(S(=O)(=O)CCCN2CCOCC2)c1` [Compound 4, 1-[3-(3-Morpholin-4-yl-propane-1-sulfonyl)-phenyl]-3-phenyl-urea], in data set [1] (Conc. 500 nM), the “% Inhibition” value is listed as 74%.

`COc1ccc(S(=O)(=O)c2ccc(NC(=O)NC34CC5CC(CC(C5)C3)C4)cc2)nn1` [Compound 10, 1-Adamantan-1-yl-3-[4-(6-methoxy-pyridazine-3-sulfonyl)-phenyl]-urea] showed a melting point of 252 to 254 °C. The “% Inhibition” value in data set [1] (Conc. 2000 nM) worked out at 100%.

Usually % Inhibition stands for the relative decrease from the control value, in per cent. Low values mean a response near the control, high ones a response far below the control. A word on the melting point: it is the temperature, or range, at which the solid turns liquid.
